ChEMBL document CHEMBL3885861, “Open TG-GATES”

Organism: Rattus norvegicus
Assay: Open TG-GATES - Regimen: Single
Format: toxicity, organism-based, Sprague-Dawley
Parameters: regimen Single, gender Male, age 6 weeks
Details: in vivo, iv, 1000 mg/kg, route intravenous injection, dose level Middle; for APTT / Bas / Eos / Fbg / Hb / Ht / Lym / MCH / MCHC / MCV / Mono / PT / Plat / RBC / Ret / WBC: tissue Blood; for KIDNEY_L / KIDNEY_R / KIDNEY_TOTAL: tissue Kidney; for LIVER: tissue Liver; for ALP / ALT / AST / BUN / CRE / Ca / Cl / DBIL / GLC / IP / K / LDH / Na / PL / RALB / TBIL / TC / TG / TP / gamma-GTP: tissue Plasma

For `CC(=O)OCC1=C(C(=O)O)N2C(=O)[C@@H](NC(=O)Cc3cccs3)[C@H]2SC1` [CEPHALOTHIN], the TERMINAL_BW (3 h) was 212.6 g, the APTT (3 h) was 22.3 s and the Bas (3 h) was 0%. For the same molecule, the Eos (3 h) was 0.4%, the Fbg (3 h) was 266.6 mg/dL and the Hb (3 h) was 13.2 g/dL. It also gave a Ht (3 h) of 38.5%, a Lym (3 h) of 72% and an MCH (3 h) of 21.3 pg. The MCHC (3 h) was 34.3%, the MCV (3 h) was 62 fL and the Mono (3 h) was 3.2%. For the same molecule, the PT (3 h) was 16.3 s, the Plat (3 h) was 116.5 x10_4/uL and the RBC (3 h) was 622 x10_4/ul. It also gave a Ret (3 h) of 5.8%, a WBC (3 h) of 76.3 x10_2/uL and a KIDNEY_L (3 h) of 0.9 g. The KIDNEY_R (3 h) was 0.9 g, the KIDNEY_TOTAL (3 h) was 1.9 g and the LIVER (3 h) was 10 g. The ALP (3 h) was 1462.8 IU/L, the ALT (3 h) was 52.4 IU/L and the AST (3 h) was 101 IU/L. It also gave a BUN (3 h) of 12.6 mg/dL, a CRE (3 h) of 0.2 mg/dL and a Ca (3 h) of 10.8 mg/dL. For the same molecule, the Cl (3 h) was 105.2 meq/L, the DBIL (3 h) was 0 mg/dL and the GLC (3 h) was 173 mg/dL. For the same molecule, the IP (3 h) was 8.5 mg/dL, the K (3 h) was 4.3 meq/L and the LDH (3 h) was 207.6 IU/L. For the same molecule, the Na (3 h) was 141.8 meq/L, the PL (3 h) was 141.2 mg/dL and the RALB (3 h) was 2.9 g/dL. For the same molecule, the TBIL (3 h) was 0.02 mg/dL, the TC (3 h) was 68.8 mg/dL and the TG (3 h) was 132.8 mg/dL. It also gave a TP (3 h) of 5.2 g/dL, a gamma-GTP (3 h) of 1.2 IU/L and a TERMINAL_BW (6 h) of 218.3 g. For the same molecule, the APTT (6 h) was 24.1 s, the Bas (6 h) was 0% and the Eos (6 h) was 1%. It also gave a Fbg (6 h) of 281.6 mg/dL, a Hb (6 h) of 13.1 g/dL and a Ht (6 h) of 38.6%. For the same molecule, the Lym (6 h) was 76.4%, the MCH (6 h) was 21.1 pg and the MCHC (6 h) was 34%. For the same molecule, the MCV (6 h) was 62.1 fL, the Mono (6 h) was 2.4% and the PT (6 h) was 16.2 s. For the same molecule, the Plat (6 h) was 135.7 x10_4/uL, the RBC (6 h) was 622 x10_4/ul and the Ret (6 h) was 6.3%. The WBC (6 h) was 78.7 x10_2/uL, the KIDNEY_L (6 h) was 1 g and the KIDNEY_R (6 h) was 1 g. It also gave a KIDNEY_TOTAL (6 h) of 1.9 g, an LIVER (6 h) of 9.4 g and an ALP (6 h) of 1381.4 IU/L. For the same molecule, the ALT (6 h) was 39.2 IU/L, the AST (6 h) was 91.4 IU/L and the BUN (6 h) was 12.8 mg/dL. The CRE (6 h) was 0.2 mg/dL, the Ca (6 h) was 10.5 mg/dL and the Cl (6 h) was 106.2 meq/L. For the same molecule, the DBIL (6 h) was 0.002 mg/dL, the GLC (6 h) was 175.4 mg/dL and the IP (6 h) was 8.9 mg/dL. The K (6 h) was 4.5 meq/L, the LDH (6 h) was 176 IU/L and the Na (6 h) was 141.4 meq/L. For the same molecule, the PL (6 h) was 127.8 mg/dL, the RALB (6 h) was 2.8 g/dL and the TBIL (6 h) was 0.018 mg/dL. It also gave a TC (6 h) of 61.6 mg/dL, a TG (6 h) of 115.2 mg/dL and a TP (6 h) of 5.2 g/dL. It also gave a gamma-GTP (6 h) of 1.2 IU/L, a TERMINAL_BW (9 h) of 213.7 g and an APTT (9 h) of 22.5 s. It also gave a Bas (9 h) of 0%, an Eos (9 h) of 1% and a Fbg (9 h) of 293.2 mg/dL. For the same molecule, the Hb (9 h) was 13 g/dL, the Ht (9 h) was 38.2% and the Lym (9 h) was 73.4%. The MCH (9 h) was 20.9 pg, the MCHC (9 h) was 34% and the MCV (9 h) was 61.6 fL. The Mono (9 h) was 2.2%, the PT (9 h) was 16.1 s and the Plat (9 h) was 128.3 x10_4/uL. For the same molecule, the RBC (9 h) was 620.4 x10_4/ul, the Ret (9 h) was 6.8% and the WBC (9 h) was 74.6 x10_2/uL. The KIDNEY_L (9 h) was 1 g, the KIDNEY_R (9 h) was 1 g and the KIDNEY_TOTAL (9 h) was 1.9 g. It also gave an LIVER (9 h) of 8.9 g, an ALP (9 h) of 1218.6 IU/L and an ALT (9 h) of 33.2 IU/L. For the same molecule, the AST (9 h) was 75.4 IU/L, the BUN (9 h) was 11 mg/dL and the CRE (9 h) was 0.2 mg/dL. For the same molecule, the Ca (9 h) was 10.5 mg/dL, the Cl (9 h) was 107.2 meq/L and the DBIL (9 h) was 0 mg/dL. The GLC (9 h) was 176.6 mg/dL, the IP (9 h) was 9.1 mg/dL and the K (9 h) was 4.5 meq/L. The LDH (9 h) was 150 IU/L, the Na (9 h) was 141.6 meq/L and the PL (9 h) was 138.8 mg/dL. For the same molecule, the RALB (9 h) was 2.9 g/dL, the TBIL (9 h) was 0.018 mg/dL and the TC (9 h) was 72 mg/dL. It also gave a TG (9 h) of 90.2 mg/dL, a TP (9 h) of 5.4 g/dL and a gamma-GTP (9 h) of 1.6 IU/L. The TERMINAL_BW (24 h) was 219.2 g, the APTT (24 h) was 22.5 s and the Bas (24 h) was 0%. It also gave an Eos (24 h) of 1%, a Fbg (24 h) of 309.8 mg/dL and a Hb (24 h) of 13.5 g/dL. The Ht (24 h) was 39.4%, the Lym (24 h) was 81.4% and the MCH (24 h) was 20.7 pg. It also gave an MCHC (24 h) of 34.3%, an MCV (24 h) of 60.5 fL and a Mono (24 h) of 2.4%. The PT (24 h) was 16.3 s, the Plat (24 h) was 124.3 x10_4/uL and the RBC (24 h) was 651.8 x10_4/ul. It also gave a Ret (24 h) of 5.1%, a WBC (24 h) of 73.5 x10_2/uL and a KIDNEY_L (24 h) of 1 g. The KIDNEY_R (24 h) was 1 g, the KIDNEY_TOTAL (24 h) was 1.9 g and the LIVER (24 h) was 9.5 g. The ALP (24 h) was 1371.4 IU/L, the ALT (24 h) was 48 IU/L and the AST (24 h) was 76.8 IU/L. The BUN (24 h) was 15.8 mg/dL, the CRE (24 h) was 0.2 mg/dL and the Ca (24 h) was 10.6 mg/dL. It also gave a Cl (24 h) of 106.8 meq/L, a DBIL (24 h) of 0 mg/dL and a GLC (24 h) of 190.8 mg/dL. The IP (24 h) was 6.7 mg/dL, the K (24 h) was 4.2 meq/L and the LDH (24 h) was 146.8 IU/L. For the same molecule, the Na (24 h) was 143 meq/L, the PL (24 h) was 148.8 mg/dL and the RALB (24 h) was 3.1 g/dL. The TBIL (24 h) was 0.012 mg/dL, the TC (24 h) was 80.6 mg/dL and the TG (24 h) was 79.4 mg/dL. For the same molecule, the TP (24 h) was 5.7 g/dL and the gamma-GTP (24 h) was 1.6 IU/L.
